What is called EC50 is the concentration giving half of the maximal effect. Low values mean greater potency, high ones weaker potency. A word on the pIC50: it is the IC50 on a negative log10 scale, so that one unit is a factor of ten. Read a low pIC50 as a large IC50.

The species entered for series [1] is Rattus norvegicus. The experiment in a line: Vasorelaxation activity in rat mesenteric arteries after contractile stimulus (norepinephrine).
Series [2] is filed under the species Rattus norvegicus. The experiment in a line: Vasorelaxation activity in rat mesenteric arteries after contractile stimulus(K+ depolarization).
Series [3] is described as follows: Inhibition of [3H]P1075 binding to ATP-sensitive potassium channels of rat cardiac membranes. Format: cell membranes, Membrane.
The target of series [4] is T1, Voltage-dependent L-type calcium channel subunit alpha-1C (Homo sapiens, UniProt Q13936). As to the kind of experiment: Inhibition of VGCC alpha-1C-b expressed in CHO cells -80 mV holding potential, peak Ba2+ current, at 10e-6 M. Format: functional, cell-based.
T1 sequence (Q13936 whole entry): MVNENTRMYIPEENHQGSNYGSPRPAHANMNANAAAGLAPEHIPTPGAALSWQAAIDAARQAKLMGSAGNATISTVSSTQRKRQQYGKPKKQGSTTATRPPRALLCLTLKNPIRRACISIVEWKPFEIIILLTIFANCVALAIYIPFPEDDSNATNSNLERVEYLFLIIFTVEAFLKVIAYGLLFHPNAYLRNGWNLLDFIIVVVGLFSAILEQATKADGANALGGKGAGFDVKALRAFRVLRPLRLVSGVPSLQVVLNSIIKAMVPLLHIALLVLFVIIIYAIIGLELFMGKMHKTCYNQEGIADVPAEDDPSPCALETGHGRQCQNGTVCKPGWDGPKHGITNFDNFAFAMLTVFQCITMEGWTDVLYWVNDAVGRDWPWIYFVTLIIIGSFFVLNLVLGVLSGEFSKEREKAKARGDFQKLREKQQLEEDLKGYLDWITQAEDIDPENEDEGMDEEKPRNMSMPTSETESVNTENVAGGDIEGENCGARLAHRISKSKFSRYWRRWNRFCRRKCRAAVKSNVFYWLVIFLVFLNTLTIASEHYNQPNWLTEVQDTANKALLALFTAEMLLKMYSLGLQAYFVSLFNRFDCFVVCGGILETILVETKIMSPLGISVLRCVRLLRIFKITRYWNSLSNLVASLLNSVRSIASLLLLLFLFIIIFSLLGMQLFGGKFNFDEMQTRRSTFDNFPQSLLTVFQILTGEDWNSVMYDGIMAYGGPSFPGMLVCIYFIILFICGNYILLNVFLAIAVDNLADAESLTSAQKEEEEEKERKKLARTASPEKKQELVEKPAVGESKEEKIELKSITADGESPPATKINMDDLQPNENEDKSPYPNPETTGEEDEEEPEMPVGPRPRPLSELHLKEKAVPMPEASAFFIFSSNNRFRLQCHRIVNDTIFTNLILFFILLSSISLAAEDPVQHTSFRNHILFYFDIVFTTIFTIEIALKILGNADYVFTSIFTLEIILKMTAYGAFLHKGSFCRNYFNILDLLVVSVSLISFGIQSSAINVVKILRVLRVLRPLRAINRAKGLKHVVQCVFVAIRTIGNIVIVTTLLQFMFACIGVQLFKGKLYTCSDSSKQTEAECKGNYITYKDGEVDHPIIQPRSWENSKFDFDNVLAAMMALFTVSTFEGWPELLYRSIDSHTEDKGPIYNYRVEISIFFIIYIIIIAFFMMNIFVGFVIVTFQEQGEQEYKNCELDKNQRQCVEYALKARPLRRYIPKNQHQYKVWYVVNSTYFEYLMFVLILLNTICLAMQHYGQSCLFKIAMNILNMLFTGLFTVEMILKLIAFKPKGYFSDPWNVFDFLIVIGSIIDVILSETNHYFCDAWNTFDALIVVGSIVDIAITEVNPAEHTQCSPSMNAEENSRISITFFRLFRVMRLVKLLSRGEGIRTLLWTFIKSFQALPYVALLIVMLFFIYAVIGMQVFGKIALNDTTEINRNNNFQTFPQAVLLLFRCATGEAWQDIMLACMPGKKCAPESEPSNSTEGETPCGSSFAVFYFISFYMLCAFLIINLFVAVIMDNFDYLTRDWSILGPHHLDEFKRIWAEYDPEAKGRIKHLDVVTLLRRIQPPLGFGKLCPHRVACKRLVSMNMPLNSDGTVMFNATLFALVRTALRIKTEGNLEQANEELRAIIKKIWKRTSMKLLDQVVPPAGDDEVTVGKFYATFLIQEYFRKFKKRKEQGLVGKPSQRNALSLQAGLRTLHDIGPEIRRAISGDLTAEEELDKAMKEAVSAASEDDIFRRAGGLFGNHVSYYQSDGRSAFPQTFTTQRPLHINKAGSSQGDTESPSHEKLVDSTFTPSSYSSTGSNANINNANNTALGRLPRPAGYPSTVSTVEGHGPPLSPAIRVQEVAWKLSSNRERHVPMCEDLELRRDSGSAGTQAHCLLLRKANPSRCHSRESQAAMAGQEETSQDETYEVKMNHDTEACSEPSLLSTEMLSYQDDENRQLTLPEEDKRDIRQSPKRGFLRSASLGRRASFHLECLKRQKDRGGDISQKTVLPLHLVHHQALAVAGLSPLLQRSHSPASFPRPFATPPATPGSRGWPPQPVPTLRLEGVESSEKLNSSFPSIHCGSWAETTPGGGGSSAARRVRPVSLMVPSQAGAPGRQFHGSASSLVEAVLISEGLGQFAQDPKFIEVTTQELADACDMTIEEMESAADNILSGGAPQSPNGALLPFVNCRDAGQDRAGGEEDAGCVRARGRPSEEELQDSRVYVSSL
The nature of series [5]: Vasorelaxation in rat mesenteric arteries after contractile stimulus (norepinephrine+glibenclamide). Format: functional.
Series [6] has as its target T1, Voltage-dependent L-type calcium channel subunit alpha-1C. The experiment in a line: Inhibition of VGCC alpha-1C-b expressed in CHO cells -80 mV holding potential, peak Ba2+ current, at 10e-5 M. The class given is functional, cell-based. As to conditions: hamster.
For series [7] the target is unchanged. The experiment in a line: Inhibition of VGCC alpha-1C-b expressed in CHO cells -30 mV holding potential, peak Ba2+ current, at 10e-6 M. The class given is functional, cell-based.
Series [8] shares this target. The experiment in a line: Inhibition of VGCC alpha-1C-b expressed in CHO cells -30 mV holding potential, peak Ba2+ current, at 10e-5 M. Format: functional, cell-based.
For series [9], the species on record is Rattus norvegicus. As to the kind of experiment: Vasorelaxation activity in rat mesenteric arteries after contractile stimulus(K+ depolarization).
The target of series [10] is T1, Voltage-dependent L-type calcium channel subunit alpha-1C. As to the kind of experiment: Inhibition of VGCC alpha-1C-b expressed in CHO cells -30 mV holding potential, peak Ba2+ current, at 10e-4 M. The class given is functional, cell-based.
The target is the same in series [11]. The experiment in a line: Inhibition of VGCC alpha-1C-b expressed in CHO cells -80 mV holding potential, peak Ba2+ current, at 10e-4 M. The class given is functional, cell-based.

As to `COC(=O)C1=C(C)N=C(C)/C(=C(/O)OC)C1c1cc(N/C(=N/C(C)C(C)(C)C)NC#N)ccc1OC(F)F` (stereo not drawn), the figures for the EC50 in the series listed under Rattus norvegicus [1] and in the series filed under Rattus norvegicus [2] were 0.2 µM and 0.372 µM, respectively. Besides, the pIC50 in series [3] stood at 6.2. For the same compound, the Peak current in [4] came out at 60.4%; in series [6], 38.2%; in [7], 9.2%; in series [8] it was 2.5%. In series [5], the “Log EC50” value is on record as -6.2.

As to `CO/C(O)=C1\C(C)=NC(C)=C(C#N)C1c1cc(N/C(=N/C(C)C(C)(C)C)NC#N)ccc1OC(F)F` (stereo not drawn), in the series filed under Rattus norvegicus [9], the EC50 is 2.34 µM.

Compound `CCOC(=O)C1=C(C)N=C(C)/C(=C(/O)OCC)C1c1cc(N/C(=N/C(C)C(C)(C)C)NC#N)ccc1OC(F)F` (stereo not drawn) showed an EC50 in the series filed under Rattus norvegicus [2] of 0.955 µM.

Turning to `CC(/N=C(\NC#N)Nc1ccc(OC(F)F)cc1)C(C)(C)C` (stereo not drawn), the EC50 in the series filed under Rattus norvegicus [1] is 0.288 µM; in the series filed under Rattus norvegicus [2] it was 7.41 µM. Also, the pIC50 in [3] was 8.7. Also, in series [5], the “Log EC50” value is -6.12. The Peak current in series [6] was found to be 58.2%; in [10], 2.4%; in series [8], 10.8%; in [11] it was 26.7%.

The values are drawn from ChEMBL document CHEMBL1132542, “Vasorelaxation by new hybrid compounds containing dihydropyridine and pinacidil-like moieties” (J Med Chem, 1999).
